Assay results published in ChEMBL document CHEMBL1201862, “PubChem BioAssay data set” (2004).
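Growth conditions: 96-well plates. Treatment: test compound, 48 hours, 5 concentrations. Analysis: linear interpolation between bracketing concentrations; unreached endpoints set to highest concentration. GI50: concentration for 50% inhibition of growth.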 Activity calls are given as the source filed them. Cut-off read from the data, not from the text of the source: active = GI50 up to about 1.1 µM and inactive = higher.

Legend:
Test in all cases: inhibition of tumour cell growth, NCI panel, 48 h
786-0 = system: 786-0
A498 = system: A498
A549 = system: A549
ACHN = system: ACHN
BT-549 = system: BT-549
CAKI-1 = system: CAKI-1
CCRF-CEM = system: CCRF-CEM
COLO 205 = system: COLO 205
DU-145 = system: DU-145
EKVX = system: EKVX
HCC 2998 = system: HCC 2998
HCT-116 = system: HCT-116
HCT-15 = system: HCT-15
HL-60 = system: HL-60
HOP-62 = system: HOP-62
HOP-92 = system: HOP-92
HT-29 = system: HT-29
Hs-578T = system: Hs-578T
IGROV-1 = system: IGROV-1
K562 = system: K562
KM12 = system: KM12
LOX IMVI = system: LOX IMVI
M14 = system: M14
MCF7 = system: MCF7
MDA-MB-231 = system: MDA-MB-231
MDA-MB-435 = system: MDA-MB-435
MDA-N = system: MDA-N
MOLT-4 = system: MOLT-4
Malme-3M = system: Malme-3M
NCI-H226 = system: NCI-H226
NCI-H23 = system: NCI-H23
NCI-H522 = system: NCI-H522
NCI/ADR-RES = system: NCI/ADR-RES
OVCAR-3 = system: OVCAR-3
OVCAR-4 = system: OVCAR-4
OVCAR-5 = system: OVCAR-5
OVCAR-8 = system: OVCAR-8
PC-3 = system: PC-3
RPMI-8226 = system: RPMI-8226
RXF 393 = system: RXF 393
SF-268 = system: SF-268
SF-295 = system: SF-295
SK-MEL-28 = system: SK-MEL-28
SK-MEL-2 = system: SK-MEL-2
SK-MEL-5 = system: SK-MEL-5
SK-OV-3 = system: SK-OV-3
SN12C = system: SN12C
SNB-75 = system: SNB-75
SR = system: SR
SW-620 = system: SW-620
T47D = system: T47D
TK-10 = system: TK-10
U-251 = system: U-251
UACC-257 = system: UACC-257
UACC-62 = system: UACC-62
UO-31 = system: UO-31
NCI-H460 = system: NCI-H460
SNB-19 = system: SNB-19
KM-20L2 = system: KM-20L2

In the case of `N=C(N)Nc1ccc(CC(N)C(=O)O)cc1` (stereo unspecified), the GI50 (786-0) is reported as > 12.5 µM (inactive), the GI50 (A498) is reported as > 12.5 µM (inactive) and the GI50 (A549) is reported as > 12.5 µM (inactive). For the same compound, the GI50 (ACHN) was > 12.5 µM (inactive), the GI50 (BT-549) was > 12.5 µM (inactive) and the GI50 (CAKI-1) was > 12.5 µM (inactive). For the same compound, the GI50 (CCRF-CEM) was > 12.5 µM (inactive), the GI50 (COLO 205) was > 12.5 µM (inactive) and the GI50 (DU-145) was > 12.5 µM (inactive). The GI50 (EKVX) was > 12.5 µM (inactive), the GI50 (HCC 2998) was > 12.5 µM (inactive) and the GI50 (HCT-116) was > 12.5 µM (inactive). For the same compound, the GI50 (HCT-15) was over 12.5 µM, the GI50 (HL-60) was > 12.5 µM (inactive) and the GI50 (HOP-62) was > 12.5 µM (inactive). The GI50 (HOP-92) was > 12.5 µM (inactive), the GI50 (HT-29) was > 12.5 µM (inactive) and the GI50 (Hs-578T) was > 12.5 µM (inactive). The GI50 (IGROV-1) was > 12.5 µM (inactive), the GI50 (K562) was > 12.5 µM (inactive) and the GI50 (KM12) was > 12.5 µM (inactive). For the same compound, the GI50 (LOX IMVI) was > 12.5 µM (inactive), the GI50 (M14) was > 12.5 µM (inactive) and the GI50 (MCF7) was > 12.5 µM (inactive). The GI50 (MDA-MB-231) was > 12.5 µM (inactive), the GI50 (MDA-MB-435) was > 12.5 µM (inactive) and the GI50 (MDA-N) was > 12.5 µM (inactive). The GI50 (MOLT-4) was > 12.5 µM (inactive), the GI50 (Malme-3M) was > 12.5 µM (inactive) and the GI50 (NCI-H226) was > 12.5 µM (inactive). The GI50 (NCI-H23) was > 12.5 µM (inactive), the GI50 (NCI-H522) was > 12.5 µM (inactive) and the GI50 (NCI/ADR-RES) was > 12.5 µM (inactive). The GI50 (OVCAR-3) was > 12.5 µM (inactive), the GI50 (OVCAR-4) was > 12.5 µM (inactive) and the GI50 (OVCAR-5) was > 12.5 µM (inactive). For the same compound, the GI50 (OVCAR-8) was > 12.5 µM (inactive), the GI50 (PC-3) was > 12.5 µM (inactive) and the GI50 (RPMI-8226) was > 12.5 µM (inactive). The GI50 (RXF 393) was > 12.5 µM (inactive), the GI50 (SF-268) was > 12.5 µM (inactive) and the GI50 (SF-295) was > 12.5 µM (inactive). For the same compound, the GI50 (SK-MEL-28) was > 12.5 µM (inactive), the GI50 (SK-MEL-2) was > 12.5 µM (inactive) and the GI50 (SK-MEL-5) was > 12.5 µM (inactive). The GI50 (SK-OV-3) was > 12.5 µM (inactive), the GI50 (SN12C) was > 12.5 µM (inactive) and the GI50 (SNB-75) was > 12.5 µM (inactive). For the same compound, the GI50 (SR) was > 12.5 µM (inactive), the GI50 (SW-620) was > 12.5 µM (inactive) and the GI50 (T47D) was > 12.5 µM (inactive). The GI50 (TK-10) was > 12.5 µM (inactive), the GI50 (U-251) was > 12.5 µM (inactive) and the GI50 (UACC-257) was > 12.5 µM (inactive). The GI50 (UACC-62) was > 12.5 µM (inactive) and the GI50 (UO-31) was > 12.5 µM (inactive).
In the case of `CCOC(=O)c1sc2nc(SC)nc3c2c1N=CN3c1ccc(Br)cc1`, the GI50 (786-0) is reported as 40.1 µM (inactive), the GI50 (A498) is reported as 25.2 µM (inactive) and the GI50 (A549) is reported as > 100 µM (inactive). The GI50 (ACHN) was > 100 µM (inactive), the GI50 (BT-549) was > 100 µM (inactive) and the GI50 (CAKI-1) was 98.9 µM (inactive). For the same compound, the GI50 (CCRF-CEM) was > 100 µM (inactive), the GI50 (COLO 205) was > 100 µM (inactive) and the GI50 (DU-145) was > 100 µM (inactive). The GI50 (EKVX) was > 100 µM (inactive), the GI50 (HCC 2998) was > 100 µM (inactive) and the GI50 (HCT-116) was > 100 µM (inactive). The GI50 (HCT-15) was over 100 µM, the GI50 (HL-60) was > 100 µM (inactive) and the GI50 (HOP-62) was 21.7 µM (inactive). For the same compound, the GI50 (HOP-92) was > 100 µM (inactive), the GI50 (HT-29) was > 100 µM (inactive) and the GI50 (Hs-578T) was 23.1 µM (inactive). For the same compound, the GI50 (IGROV-1) was > 100 µM (inactive), the GI50 (K562) was > 100 µM (inactive) and the GI50 (KM12) was > 100 µM (inactive). For the same compound, the GI50 (LOX IMVI) was > 100 µM (inactive), the GI50 (M14) was > 100 µM (inactive) and the GI50 (MCF7) was > 100 µM (inactive). For the same compound, the GI50 (MDA-MB-231) was > 100 µM (inactive), the GI50 (MDA-MB-435) was > 100 µM (inactive) and the GI50 (MDA-N) was > 100 µM (inactive). The GI50 (MOLT-4) was > 100 µM (inactive), the GI50 (Malme-3M) was > 100 µM (inactive) and the GI50 (NCI-H226) was > 100 µM (inactive). The GI50 (NCI-H23) was > 100 µM (inactive), the GI50 (NCI-H460) was > 100 µM (inactive) and the GI50 (NCI-H522) was > 100 µM (inactive). The GI50 (NCI/ADR-RES) was > 100 µM (inactive), the GI50 (OVCAR-3) was 24.8 µM (inactive) and the GI50 (OVCAR-4) was > 100 µM (inactive). For the same compound, the GI50 (OVCAR-5) was > 100 µM (inactive), the GI50 (OVCAR-8) was > 100 µM (inactive) and the GI50 (PC-3) was > 100 µM (inactive). The GI50 (RPMI-8226) was > 100 µM (inactive), the GI50 (RXF 393) was 25.4 µM (inactive) and the GI50 (SF-295) was > 100 µM (inactive). The GI50 (SK-MEL-28) was > 100 µM (inactive), the GI50 (SK-MEL-2) was > 100 µM (inactive) and the GI50 (SK-MEL-5) was > 100 µM (inactive). For the same compound, the GI50 (SK-OV-3) was > 100 µM (inactive), the GI50 (SN12C) was > 100 µM (inactive) and the GI50 (SNB-19) was > 100 µM (inactive). For the same compound, the GI50 (SNB-75) was 38.2 µM (inactive), the GI50 (SR) was > 100 µM (inactive) and the GI50 (SW-620) was > 100 µM (inactive). The GI50 (T47D) was > 100 µM (inactive), the GI50 (TK-10) was > 100 µM (inactive) and the GI50 (U-251) was 76.2 µM (inactive). For the same compound, the GI50 (UACC-257) was > 100 µM (inactive), the GI50 (UACC-62) was > 100 µM (inactive) and the GI50 (UO-31) was > 100 µM (inactive).
In the case of `COc1ccc(/C=C\c2cc(OC)c(OC)c(OC)c2)cc1O`, the GI50 (BT-549) is reported as 23.9 µM (inactive), the GI50 (COLO 205) is reported as 2.9 µM (inactive) and the GI50 (EKVX) is reported as 14.7 µM (inactive). The GI50 (HT-29) was 3.84 µM (inactive), the GI50 (IGROV-1) was < 0.02 µM (active) and the GI50 (KM-20L2) was 2.01 µM (inactive). The GI50 (OVCAR-5) was 5.43 µM (inactive) and the GI50 (TK-10) was 56.9 µM (inactive).
